Reference: patent US8207178B2 (priority 2007, dated 2012)
Where two headings read alike, the source gives them in different places.

Key:
wild type HIV-1 = experiment: microbe, parasite or virus in culture; assay type: cell-based, human immunodeficiency virus type 1 (HIV-1); details: Human immunodeficiency virus 1, Hela-JC53
HIV-1 K103N-L100I mutant = experiment: microbe, parasite or virus in culture; assay type: cell-based, human immunodeficiency virus type 1 (HIV-1)
[1] = Human immunodeficiency virus 1, HeLa, read-out: EC50 mutant K103N-L100I, mutant K103N-L100I

| SMILES | EC50 (wild type HIV-1) [nM] | EC50 (HIV-1 K103N-L100I mutant; [1]) [nM] | EC50 (HIV-1 K103N-L100I mutant; read-out: EC50 mutant K103N-L100I, mutant K103N-L100I) [nM] |
| --- | --- | --- | --- |
| Cc1cc(-c2cc(F)nc(F)c2)cc(C)c1Oc1nc(Nc2ccc(C#N)cc2)nc2ccn(C)c12 [Example 4, 4-(4-(4-(2,6-Difluoropyridin-4-yl)-2,6-dimethylphenoxy)-5-methyl-5H-pyrrolo[3,2-d]pyrimidin-2-ylamino) benzonitrile] | 1 to 10 | > 10 | – |
| COc1cnccc1-c1cc(C)c(Oc2nc(Nc3ccc(C#N)cc3)nc3ccn(C)c23)c(C)c1 [Example 9, 4-(4-(4-(3-Methoxypyridin-4-yl)-2,6-dimethylphenoxy)-5-methyl-5H-pyrrolo[3,2-d]pyrimidin-2-ylamino) benzonitrile] | 1 to 10 | 1 to 10 | – |
| COc1cc(-c2cc(C)c(Oc3nc(Nc4ccc(C#N)cc4)nc4ccn(C)c34)c(C)c2)ccn1 [Example 10, 4-(4-(4-(2-Methoxypyridin-4-yl)-2,6-dimethylphenoxy)-5-methyl-5H-pyrrolo[3,2-d]pyrimidin-2-ylamino) benzonitrile] | > 10 | > 10 | – |
| Cc1cc(-c2ccncc2Cl)cc(C)c1Oc1nc(Nc2ccc(C#N)cc2)nc2ccn(C)c12 [Example 11, 4-(4-(4-(3-Chloropyridin-4-yl)-2,6-dimethylphenoxy)-5-methyl-5H-pyrrolo[3,2-d]pyrimidin-2-ylamino) benzonitrile] | < 1 | < 1 | – |
| Cc1cc(-c2cccnc2)cc(C)c1Oc1nc(Nc2ccc(C#N)cc2)nc2ccn(C)c12 [Example 12, 4-(4-(2,6-Dimethyl-4-(pyridin-3-yl)phenoxy)-5-methyl-5H-pyrrolo[3,2-d]pyrimidin-2-ylamino)benzonitrile] | 1 to 10 | > 10 | – |
| Cc1cc(-c2ccoc2)cc(C)c1Oc1nc(Nc2ccc(C#N)cc2)nc2ccn(C)c12 [Example 13, 4-(4-(4-(Furan-3-yl)-2,6-dimethylphenoxy)-5-methyl-5H-pyrrolo[3,2-d]pyrimidin-2-ylamino)benzonitrile] | 1 to 10 | > 10 | – |
| Cc1cc(-c2cncnc2)cc(C)c1Oc1nc(Nc2ccc(C#N)cc2)nc2ccn(C)c12 [Example 14, 4-(4-(2,6-dimethyl-4-(pyrimidin-5-yl)phenoxy)-5-methyl-5H-pyrrolo[3,2-d]pyrimidin-2-ylamino) benzonitrile] | < 1 | 1 to 10 | – |
| Cc1cc(-c2ccncc2)cc(C)c1Oc1nc(Nc2ccc(C#N)cc2)nc2c(Cl)cn(C)c12 [Example 18, 4-(7-Chloro-4-(2,6-dimethyl-4-(pyridin-4-yl)phenoxy)-5-methyl-5H-pyrrolo[3,2-d]pyrimidin-2-ylamino)benzonitrile] | 1 to 10 | 1 to 10 | – |
| Cc1cc(-c2ccncc2)cc(C)c1Nc1nc(Nc2ccc(C#N)cc2)nc2ccn(C)c12 [Example 19, 4-(4-(2,6-Dimethyl-4-(pyridin-4-yl)phenylamino)-5-methyl-5H-pyrrolo[3,2-d]pyrimidin-2-ylamino)benzonitrile] | < 1 | 1 to 10 | – |
| COc1ncc(-c2cc(C)c(Oc3nc(Nc4ccc(C#N)cc4)nc4ccn(C)c34)c(C)c2)cn1 [Example 20, 4-(4-(4-(2-Methoxypyrimidin-5-yl)-2,6-dimethylphenoxy)-5-methyl-5H-pyrrolo [3,2-d]pyrimidin-2-ylamino)benzonitrile] | < 1 | 1 to 10 | – |
| Cc1cc(-c2c(C)nn(C)c2C)cc(C)c1Oc1nc(Nc2ccc(C#N)cc2)nc2ccn(C)c12 [Example 21] | 1 to 10 | > 10 | – |
| Cc1cc(-c2ccc(N(C)C)cc2)cc(C)c1Oc1nc(Nc2ccc(C#N)cc2)nc2ccn(C)c12 [Example 22, 4-(4-(4′-(Dimethylamino)-3,5-dimethylphenyl-4-yloxy)-5-methyl-5H-pyrrolo[3,2-d]pyrimidin-2-ylamino)benzonitrile] | 1 to 10 | > 10 | – |
| Cc1cc(-c2ccncc2C#N)cc(C)c1Oc1nc(Nc2ccc(C#N)cc2)nc2ccn(C)c12 [Example 23, 4-(4-(2-(4-Cyanophenylamino)-5-methyl-5H-pyrrolo[3,2-d]pyrimidin-4-yloxy)-3,5-dimethyl-phenyl)nicotinonitrile] | < 1 | – | > 10 |
| Cc1cc(-c2ccnn2C)cc(C)c1Oc1nc(Nc2ccc(C#N)cc2)nc2ccn(C)c12 [Example 25, 4-(4-(2,6-Dimethyl-4-(1-methyl-1H-pyrazol-5-yl)phenoxy)-5-methyl-5H-pyrrolo[3,2-d]pyrimidin-2-ylamino)benzonitrile] | < 1 | < 1 | – |
| Cc1cc(-c2ccc3nonc3c2)cc(C)c1Oc1nc(Nc2ccc(C#N)cc2)nc2ccn(C)c12 [Example 26, 4-(4-(4-(Benzo-[c][1,2,5]oxadiazol-5-yl)-2,6-dimethylphenoxy)-5-methyl-5H-pyrrolo[3,2-d]pyrimidin-2-ylamino) benzonitrile] | 1 to 10 | 1 to 10 | – |
| Cc1cc(-c2cnc(N(C)C)nc2)cc(C)c1Oc1nc(Nc2ccc(C#N)cc2)nc2ccn(C)c12 [Example 28] | – | > 10 | – |
| Cc1cc(-c2cnc(N)nc2)cc(C)c1Oc1nc(Nc2ccc(C#N)cc2)nc2ccn(C)c12 [Example 70, 4-(4-(4-(2-aminopyrimidin-5-yl)-2,6-dimethylbiphenoxy)-5-methyl-5H-pyrrolo[3,2-d]pyrimidin-2-ylamino) benzonitrile] | – | 1 to 10 | – |
| Cc1cc(-c2cccc(S(N)(=O)=O)c2)cc(C)c1Oc1nc(Nc2ccc(C#N)cc2)nc2ccn(C)c12 [Example 71, 4′-(2-(4-cyanophenylamino)-5-methyl-5H-pyrrolo[3,2-d]pyrimidin-4-yloxy)-3′,5′-dimethylbiphenyl-3-sulfonamide] | – | > 10 | – |
| COc1ccc(-c2cc(C)c(Oc3nc(Nc4ccc(C#N)cc4)nc4ccn(C)c34)c(C)c2)cn1 [Example 82, 4-(4-(4-(6-methoxypyridin-3-yl)-2,6-dimethylphenoxy)-5-methyl-5H-pyrrolo[3,2-d]pyrimidin-2-ylamino) benzonitrile] | > 10 | – | – |
| COc1cccc(C#N)c1-c1cc(C)c(Oc2nc(Nc3ccc(C#N)cc3)nc3ccn(C)c23)c(C)c1 [Example 83, 4′-(2-(4-cyanophenylamino)-5-methyl-5H-pyrrolo[3,2-d]pyrimidin-4-yloxy)-6-methoxy-3′,5′-dimethylbiphenyl-2-carbonitrile] | > 10 | – | – |
| Cc1cc(-c2ccc(C(=O)N3CCCC3)cc2)cc(C)c1Oc1nc(Nc2ccc(C#N)cc2)nc2ccn(C)c12 [Example 93, 4-(4-(3,5-dimethyl-4′-(pyrrolidine-1-carbonyl)biphenyl-4-yloxy)-5-methyl-5H-pyrrolo[3,2-d]pyrimidin-2-ylamino) benzonitrile] | > 10 | – | – |
| Cc1cc(-c2ccc(C(=O)O)cn2)cc(C)c1Oc1nc(Nc2ccc(C#N)cc2)nc2[nH]cnc12 [Example 121, 6-(4-(2-(4-cyanophenylamino)-9H-purin-6-yloxy)-3,5-dimethylphenyl)nicotinic acid] | > 10 | – | – |
| Cc1cc(-c2ccc(C(=O)N3CCC(C(N)=O)C3)cn2)cc(C)c1Oc1nc(Nc2ccc(C#N)cc2)nc2[nH]cnc12 (stereo not drawn) [Example 122, 1-(6-(4-(2-(4-cyanophenylamino)-9H-purin-6-yloxy)-3,5-dimethylphenyl)nicotinoyl)pyrrolidine-3-carboxamide] | > 10 | – | – |
| Cc1cc(-c2ccc(C(N)=O)cn2)cc(C)c1Oc1nc(Nc2ccc(C#N)cc2)nc2[nH]cnc12 [Example 126, 6-(4-(2-(4-cyanophenylamino)-9H-purin-6-yloxy)-3,5-dimethylphenyl)nicotinamide] | 1 to 10 | – | – |
